Data reported in US20250312469A1 (CANGET BIOTEKPHARMA, priority 2024, published 2025).
“And” between values parts separate entries of the source, which are not always exact repeats. Equal values may be shown once.

Legend:
[1] = Rat toxicology/MTD, limited numbers, FL118-HPβCD complex powder suspension (Roswell Park); conditions: for MTD at 50 days: Sprague-Dawley, rat, in vivo, po, conservative MTD; for BASO / EOS / HCT / HGB / LYM / MCH / MCHC / MCV / MONO / MPV / NEUT / PDW / PLT / RBC / RDW-SD / RET / WBC / ALB / ALP / ALT / AMYL / BUN / CHOL / CREA / Ca / GLU / Na / PHOS / TBIL / TP: rats, oral; for ALB / ALP / ALT / AMYL / BUN / CHOL / CREA / Ca / GLU / Na / PHOS / TBIL / TP: serum
[2] = target: T1, bovine serum albumin (BSA) (Bos taurus, UniProt P02769); assay: 3H-FL118 binding, Nanosep 3K centrifugal device; conditions: negative control protein
T1 construct: purchased EMD (Billerica, MA)
T1 sequence (P02769 25-607): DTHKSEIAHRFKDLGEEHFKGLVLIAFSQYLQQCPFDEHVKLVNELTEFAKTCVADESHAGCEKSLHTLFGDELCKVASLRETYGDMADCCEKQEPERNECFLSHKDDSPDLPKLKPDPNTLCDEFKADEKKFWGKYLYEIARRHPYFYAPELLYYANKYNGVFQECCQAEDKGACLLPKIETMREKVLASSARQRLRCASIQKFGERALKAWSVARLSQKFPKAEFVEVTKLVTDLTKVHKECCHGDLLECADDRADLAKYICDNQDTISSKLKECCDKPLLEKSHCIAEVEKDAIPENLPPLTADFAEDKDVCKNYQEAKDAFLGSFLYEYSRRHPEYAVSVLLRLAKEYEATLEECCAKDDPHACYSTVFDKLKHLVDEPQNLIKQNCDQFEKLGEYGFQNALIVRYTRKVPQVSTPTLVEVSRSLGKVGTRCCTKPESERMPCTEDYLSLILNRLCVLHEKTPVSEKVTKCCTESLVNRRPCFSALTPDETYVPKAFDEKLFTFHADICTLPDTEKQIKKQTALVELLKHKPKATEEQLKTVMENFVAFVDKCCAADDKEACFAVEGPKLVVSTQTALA
Experimental: Then, 5-10 μg of the FLAGR M Purification Kit (Signa)-purified Flag-USP2a and Flag-UbE2T proteins in a volume of 20-50 μL, respectively, was transferred into the sample reservoir of a 1.5 mL Nanosep 3K Centrifugal Device. In parallel, a negative control Nanosep 3K Centrifugal Devices containing 10 μg bovine serum albumin (BSA) in 50 μL volume was also set up. Then, the 3 prepared Nanosep 3K Devices were centrifuged at 10,000 rpm for 10-15 min to eliminate the solution and retain the proteins in the sample reservoir. […] Lastly, all three of the sample reservoir devices were transferred into a scintillation vial containing enough scintillation solution to cover the entire sample reservoir devices for tritium (3H) counting on the LS 6500 Scintillation System (Backman Couler™).

CRPC LAPC9 tumors = assay: LAPC9 CRPC tumor model; format: in vivo, SCID mice; conditions: 8 mg/kg orally once per week, 2 times
Hepatocyte stability = conditions: for hepatocyte CLint at 0.5 μM / half-life at 0.5 μM: both, human, hepatocytes; for hepatocyte CLint at 0.5 μM: pH 7.4, Clint (intrinsic clearance); for hepatocyte CLint at 0.5 μM / half-life at 0.5 μM / % Remaining: cryopreserved human hepatocytes; for half-life at 0.5 μM: pH 7.4, Half-life
TA97a = assay: Ames Bacterial Reverse Mutation Assay; conditions: for Background Lawn Code / Colony Counts Average / Colony Counts Replicate 1-3: TA97a
Panc-1 and BxPC-3 cells = assay: Cell attachment after FL118 pretreatment; format: cell-based, human; conditions: 24 h pretreatment, reseeded
Experimental: The harvested cells were then reseeded at an expected 30-60% confluence if all cell attached to the cell cultural dish. […] Representative cell attachment images were taken 4-16 hours dependent on control cell attachment speed after cell seeding. Quantitative analysis of non-attached cell numbers was documented in parallel for each condition.

[3] = PK after single i.v. dose in tumor bearing mice

CCC1(O)C(=O)OCc2c1cc1n(c2=O)Cc2cc3cc4c(cc3nc2-1)OCO4 (stereo not shown) [FL118]
gross pathology ([1]; all doses): no obvious FL118-related gross pathology macroscopic findings | clinical signs, female rats ([1]; all treatment groups): no serious adverse clinical signs | weight loss, female rats ([1]; all treatment groups): ≤ 10% | MTD at 50 days ([1]; female, female rats): ≤ 4.77 mg/kg | MTD at 50 days ([1]; male, male rats): ≥ 2.44 mg/kg | BASO ([1]; 1.56 mg/kg): 0.01-0.02 K/μL | EOS ([1]; 1.56 mg/kg): 0.04-0.07 K/μL | HCT ([1]; 1.56 mg/kg): 44.5-50.5% | HGB ([1]; 1.56 mg/kg): 14.2 to 16 g/dL | LYM ([1]; 1.56 mg/kg): 5.56-8.7 K/μL | MCH ([1]; 1.56 mg/kg): 17.8 to 18.6 pg | MCHC ([1]; 1.56 mg/kg): 31.2 to 32.1 g/dL | MCV ([1]; 1.56 mg/kg): 56.1 to 58.6 fL | MONO ([1]; 1.56 mg/kg): 0.19-0.58 K/μL | MPV ([1]; 1.56 mg/kg): 7.9 to 8.1 fL | NEUT ([1]; 1.56 mg/kg): 0.38-1.37 K/μL | PDW ([1]; 1.56 mg/kg): 9.2 to 10 fL | PLT ([1]; 1.56 mg/kg): 864-1070 K/μL | RBC ([1]; 1.56 mg/kg): 7.67-8.73 M/μL | RDW-SD ([1]; 1.56 mg/kg): 30 to 33.7 fL | RET ([1]; 1.56 mg/kg): 401-524 K/μL | WBC ([1]; 1.56 mg/kg): 6.5-10.7 K/μL | BASO ([1]; 3.05 mg/kg): 0.01-0.04 K/μL | EOS ([1]; 3.05 mg/kg): 0.02-0.1 K/μL | HCT ([1]; 3.05 mg/kg): 34.6-46.5% | HGB ([1]; 3.05 mg/kg): 11.8 to 14.8 g/dL | LYM ([1]; 3.05 mg/kg): 4.83-6.03 K/μL | MCH ([1]; 3.05 mg/kg): 18.4 to 19.2 pg | MCHC ([1]; 3.05 mg/kg): 31.8 to 34.1 g/dL | MCV ([1]; 3.05 mg/kg): 55.6 to 57.8 fL | MONO ([1]; 3.05 mg/kg): 0.09-0.43 K/μL | MPV ([1]; 3.05 mg/kg): 7.6 to 7.8 fL | NEUT ([1]; 3.05 mg/kg): 0.92-1.42 K/μL | PDW ([1]; 3.05 mg/kg): 9.4 to 9.9 fL | PLT ([1]; 3.05 mg/kg): 665-1259 K/μL | RBC ([1]; 3.05 mg/kg): 6.15-8.04 M/μL | RDW-SD ([1]; 3.05 mg/kg): 29.3 to 35.3 fL | RET ([1]; 3.05 mg/kg): 208-625 K/μL | WBC ([1]; 3.05 mg/kg): 6.0-7.9 K/μL | ALB ([1]; 1.56 mg/kg): 3.4 to 4.4 g/dL | ALP ([1]; 1.56 mg/kg): 111-239 U/L | ALT ([1]; 1.56 mg/kg): 63-134 U/L | AMYL ([1]; 1.56 mg/kg): 1547-2358. U/L | BUN ([1]; 1.56 mg/kg): 15 to 20 mg/dL | CHOL ([1]; 1.56 mg/kg): 89 to 111 mg/dL | CREA ([1]; 1.56 mg/kg): 0.1 to 0.5 mg/dL | Ca ([1]; 1.56 mg/kg): 11.2 to 11.6 mg/dL | GLU ([1]; 1.56 mg/kg): 206 to 296 mg/dL | Na ([1]; 1.56 mg/kg): 143 to 154 mmol/L | PHOS ([1]; 1.56 mg/kg): 10.8 to 13.2 mg/dL | TBIL ([1]; 1.56 mg/kg): 0.2 to 0.8 mg/dL | TP ([1]; 1.56 mg/kg): 6.2 to 6.7 g/dL | ALB ([1]; 3.05 mg/kg): 3.6 to 4.3 g/dL | ALP ([1]; 3.05 mg/kg): 37-168 U/L | ALT ([1]; 3.05 mg/kg): 85-111 U/L | AMYL ([1]; 3.05 mg/kg): 1614-2162. U/L | BUN ([1]; 3.05 mg/kg): 15 to 21 mg/dL | CHOL ([1]; 3.05 mg/kg): 38 to 87 mg/dL | CREA ([1]; 3.05 mg/kg): 0.1 to 0.5 mg/dL | Ca ([1]; 3.05 mg/kg): 11.3 to 11.9 mg/dL | GLU ([1]; 3.05 mg/kg): 282 to 438 mg/dL | Na ([1]; 3.05 mg/kg): 147 to 154 mmol/L | PHOS ([1]; 3.05 mg/kg): 4.1 to 10.5 mg/dL | TBIL ([1]; 3.05 mg/kg): 0.3 to 0.7 mg/dL | TP ([1]; 3.05 mg/kg): 5.4 to 6.3 g/dL | mortality ([1]; weekly oral gavage, 7 doses): No mortality occurred | 3H CPM counts in retained parts [2]: 4,230 ± 370 CPM | antitumor efficacy (CRPC LAPC9 tumors): sensitive to FL118 | half-life (Hepatocyte stability; 0.5 μM): long half-life | hepatocyte CLint at 0.5 μM (Hepatocyte stability; calculated (in parentheses)): 2.96 µL/min/1e6 cells | hepatocyte CLint at 0.5 μM (Hepatocyte stability; bound): < 3.85 µL/min/1e6 cells | half-life at 0.5 μM (Hepatocyte stability; calculated (in parentheses), calculated half-life longer than the experiment): 156 min | half-life at 0.5 μM (Hepatocyte stability; expressed as > the longest incubation time (120 min)): > 120 min | % Remaining (Hepatocyte stability; 0 min): 100% | % Remaining (Hepatocyte stability; 15 min): 79% | % Remaining (Hepatocyte stability; 30 min): 71% | % Remaining (Hepatocyte stability; 60 min): 66% | % Remaining (Hepatocyte stability; 120 min): 58% | bacterial strain mutation (TA97a): does not induce | mean revertant colonies over negative control (TA97a; +/− S9): less than 2 fold | Background Lawn Code (TA97a; 0.010 μM +S9): 1 | Colony Counts Average (TA97a; 0.010 μM +S9): 141 | Colony Counts Replicate 1-3 (TA97a; 0.010 μM +S9): 123 and 140 and 161 | Background Lawn Code (TA97a; 0.010 μM −S9): 1 | Colony Counts Average (TA97a; 0.010 μM −S9): 101 | Colony Counts Replicate 1-3 (TA97a; 0.010 μM −S9): 108 and 105 and 90 | Background Lawn Code (TA97a; 0.10 μM +S9): 1 | Colony Counts Average (TA97a; 0.10 μM +S9): 172 | Colony Counts Replicate 1-3 (TA97a; 0.10 μM +S9): 189 and 150 and 178 | Background Lawn Code (TA97a; 0.10 μM −S9): 1 | Colony Counts Average (TA97a; 0.10 μM −S9): 95 | Colony Counts Replicate 1-3 (TA97a; 0.10 μM −S9): 116 and 87 and 82 | Background Lawn Code (TA97a; 1.0 μM +S9): 1 | Colony Counts Average (TA97a; 1.0 μM +S9): 142 | Colony Counts Replicate 1-3 (TA97a; 1.0 μM +S9): 140 and 146 and 139 | Background Lawn Code (TA97a; 1.0 μM −S9): 1 | Colony Counts Average (TA97a; 1.0 μM −S9): 119 | Colony Counts Replicate 1-3 (TA97a; 1.0 μM −S9): 111 and 113 and 134 | cell attachment (Panc-1 and BxPC-3 cells): exhibited cell attachment defect | Vz ([3]; FaDu tumor): 33052 g/kg | Vz ([3]; SW620 tumor): 30742 g/kg | whole blood partitioning (Blood partitioning; 1 μM): favorable whole blood partitioning results | RBC to Plasma Partitioning (KRBC/P) (Blood partitioning; human whole blood): 1.04
